Data: paper PMC8838415, “Discovery of Novel Pleuromutilin Derivatives as Potent Antibacterial Agents for the Treatment of MRSA Infection” (Molecules, 2022)
Values after ≈ are worked out from the molar mass of the structure shown.

Tests used:
[1] = system: methicillin-resistant S. aureus (ATCC 43300); assay: MIC and MBC, broth dilution, MRSA ATCC 43300; type: cell-based; conditions: Staphylococcus aureus
Method: (§1) The synthesized pleuromutilin derivatives 8–30 were tested against four Gram-positive bacteria (MRSA ATCC 43300, S. aureus ATCC 29213 and two clinical strains of S. aureus (AD3 and 144) isolated from Guangdong Province). Tiamulin was used as the positive control in this experiment.
(§2) MIC values were tested following our previous work. The derivatives were dissolved in an aqueous solution of 2.5% tween-80 and 2.5% DMSO to make a solution with a concentration of 1000 µg/mL. The solution was diluted 12 times with MH broth to give a concentration range of 32–0.01 µg/mL. The bacteria (5 × 10^5 CFU/mL) were added in each well. For each compound concentration, three parallel experiments were set. The 96-well plate was incubated for 22–26 h at 37 °C. The MIC value was recorded as the minimal concentration that inhibits the visible growth of tested bacteria completely.
(§3) The MBC of these pleuromutilin derivatives were tested according to a previously reference. […] Then, the values of MBC were determined by laying 100 μL aliquots from the wells onto the MH agar plates without visible growth. The MH agar plate was cultured for a further 22–26 h at 37 °C.

[2] = system: S. aureus (ATCC 29213); assay: MIC and MBC, broth dilution, S. aureus ATCC 29213; type: cell-based; conditions: Staphylococcus aureus, ATCC29213
Method: as §1, §2, §3

[3] = system: S. aureus (AD3); assay: MIC and MBC, broth dilution, S. aureus AD3; type: cell-based; conditions: Staphylococcus aureus; S. aureus AD3 (clinical strain)
Method: as §1, §2, §3

[4] = system: S. aureus (144); assay: MIC and MBC, broth dilution, S. aureus 144; type: cell-based; conditions: Staphylococcus aureus; S. aureus 144 (clinical strain)
Method: as §1, §2, §3

[5] = system: 50S ribosome; assay: SPR interaction and affinity analysis; type: binding, S. aureus ATCC 43300; conditions: 4 °C; for Avg ka / Avg kd: 1:1 Langmuir binding; for Kd: KD = Kd/Ka
Method: S. aureus ATCC 43300 was used to prepare the 50S ribosomal subunit the same way as described previously. Cells were grown overnight in Brain Heart Infusion broth at 37 °C and harvested for 1.5 h at an OD600. Cells were washed with 10 mM Tris-HCl twice at pH = 7.5, and resuspended in 5 mL buffer A (20 mM HEPES-HCl pH = 7.5, 21 mM Mg(OAc)2, 100 mM NH4Cl, 1 mM DTT, 1 mM EDTA). Cells were broken by an ultrasound crusher. The lysate was centrifuged for 90 min at 20,000× g to clear cell debris.
The solution was layered on a sucrose cushion of 15 mL (10 mM Hepes-KOH pH 7.5, 25 mM Mg(OAc)2, 500 mM KCl, […], 1 mM DTT, 0.5 mM EDTA). Centrifugation was carried out for 15 h at 45,000 rpm using an ultracentrifuge Beckman (Beckman Coulter, Shanghai, China), Type 70Ti rotor. The crude ribosome pellet was resuspended in buffer E (10 mM Hepes-KOH pH 7.5, 10 mM Mg(OAc)2, 100 mM KCl, 1 mM DTT, 0.5 mM EDTA), then layered on 9 mL of 7–30% sucrose gradient and centrifuged in an ultracentrifuge Beckman, type SW40Ti rotor at 17,100 rpm for 15 h. The gradient was analyzed on the AKTA explorer system (Amersham, UK). The fractions corresponding to the 50S ribosomal subunit were collected and further subjected to precipitation by PEG 20,000. The 50S ribosomal subunit pellet was gently dissolved in 200 µL of storage buffer (10 mM HEPES-HCl pH = 7.5, 10 mM Mg(OAc)2, 15 mM KCl, 60 mM NH4Cl, 1 mM DTT) and stored at −80 °C.
SPR affinity analysis was performed on the bScreen LB 991 Label-free Microarray System (Berthold Technologies, Black Forest, Germany) at 4 °C and Biodot AD-1520 Array Printer (BIODOT Inc., Irvine, CA, USA) with a Photo-cross-linker SensorCHIP™. Concentrations of each compound were diluted to 100 μM with DMSO as the printing working solution for immobilization. A Biodot AD-1520 Array Printer (BIODOT Inc., CA, USA) was used to control the photo-cross-linker sensor chip and print samples. Each sample was printed four times. In order to check the chip quality and check whether the detection system works, DMSO was used as a system-negative control and rapamycin as a positive control. All positive control dots were divided into four groups and printed on the four corners of the sensor chip. The sensor chip was dried in vacuum after the array print and quickly transferred to a spectra radiator for a photo cross-linking reaction. The sensor chip was washed with C2H5OH, DMF and H2O in turn and evaporated in a N2 atmosphere for 15 min. Then, the Flowcell Cover were assembled.
The 50S ribosome was diluted separately to 200 nM, 400 nM, 800 nM, 1600 nM and 3200 nM with PBST (pH = 7.4, 0.1% Tween 20). Different concentrations of ribosome solutions were injected at a flow rate of 0.5 μL⋅s^−1 for 600 s at the associating stage at 4 °C, followed by PBST at a flow rate of 0.5⋅μL·s^−1 for 360 s at each dissociating stage. Then, the surface was regenerated with Glycine-HCl (pH = 2.0) at a flow rate of 2⋅μL·s^−1 for 300 s.
The raw data of the binding process of compounds and the 50S ribosome were recorded in real time. We compared the response unit (RU) of surface resonance to determine the different binding affinity between each sample dot. The process and analysis of association rate constants (Ka) and dissociation rate constants (Kd) and the equilibrium dissociation constant (KD, Kd/Ka) were performed using the data analysis software of the bScreen LB 991 Label-free Microarray System according to a single-site binding model (1:1 Langmuir binding) with mass transfer limitations for binding kinetics determination.

Compound	MBC [1] [µg/mL]	MIC [1] [µg/mL]	MBC [2] [µg/mL]	MIC [2] [µg/mL]	MBC [3] [µg/mL]	MIC [3] [µg/mL]	MBC [4] [µg/mL]	MIC [4] [µg/mL]	Avg ka [5] [M⁻¹ s⁻¹]	Avg kd [5] [s⁻¹]	Kd [5] [µM]	melting point [°C]
C=C[C@]1(C)C[C@@H](OC(=O)CNCCCc2ccccc2)[C@]2(C)[C@H](C)CC[C@]3(CCC(=O)[C@H]32)[C@@H](C)[C@@H]1O [Compound 19, 22-(3-Phenylpropylamineyl)-22-deoxypleuromutilin]	2 (≈ 4.03 µM)	1 (≈ 2.02 µM)	4 (≈ 8.07 µM)	2 (≈ 4.03 µM)	4 (≈ 8.07 µM)	1 (≈ 2.02 µM)	8 (≈ 16.1 µM)	4 (≈ 8.07 µM)	3110	0.000469	0.151	83 to 84
C=C[C@]1(C)C[C@@H](OC(=O)CNC23CC4CC(CC(C4)C2)C3)[C@]2(C)[C@H](C)CC[C@]3(CCC(=O)[C@H]32)[C@@H](C)[C@@H]1O [Compound 27, 22-Amantadineyl-22-deoxypleuromutilin]	0.25 (≈ 0.489 µM)	0.25 (≈ 0.489 µM)	1 (≈ 1.95 µM)	0.5 (≈ 0.977 µM)	4 (≈ 7.82 µM)	2 (≈ 3.91 µM)	8 (≈ 15.6 µM)	4 (≈ 7.82 µM)	7.36	0.0215	2920	105 to 109
C=C[C@]1(C)C[C@@H](OC(=O)CNCCc2ccccc2)[C@]2(C)[C@H](C)CC[C@]3(CCC(=O)[C@H]32)[C@@H](C)[C@@H]1O [Compound 17, 22-(2-PhenylethylaMineyl)-22-deoxypleuromutilin]	1 (≈ 2.08 µM)	1 (≈ 2.08 µM)	8 (≈ 16.6 µM)	2 (≈ 4.15 µM)	8 (≈ 16.6 µM)	2 (≈ 4.15 µM)	4 (≈ 8.3 µM)	4 (≈ 8.3 µM)	2.05	0.00963	4690	73 to 75
C=C[C@]1(C)C[C@@H](OC(=O)CNCCc2cccs2)[C@]2(C)[C@H](C)CC[C@]3(CCC(=O)[C@H]32)[C@@H](C)[C@@H]1O [Compound 20, 22-(Thiophene-2-ethylamineyl)-22-deoxypleuromutilin]	1 (≈ 2.05 µM)	0.5 (≈ 1.03 µM)	2 (≈ 4.1 µM)	2 (≈ 4.1 µM)	16 (≈ 32.8 µM)	4 (≈ 8.2 µM)	4 (≈ 8.2 µM)	2 (≈ 4.1 µM)	624	0.0197	31.6	69 to 70
C=C[C@]1(C)C[C@@H](OC(=O)CNCCc2ccccc2C)[C@]2(C)[C@H](C)CC[C@]3(CCC(=O)[C@H]32)[C@@H](C)[C@@H]1O [Compound 18, 22-(2-Methylphenethylamineyl)-22-deoxypleuromutilin]	2 (≈ 4.03 µM)	1 (≈ 2.02 µM)	8 (≈ 16.1 µM)	2 (≈ 4.03 µM)	16 (≈ 32.3 µM)	4 (≈ 8.07 µM)	4 (≈ 8.07 µM)	4 (≈ 8.07 µM)	134	0.00445	33.2	91 to 93
C=C[C@]1(C)C[C@@H](OC(=O)CNCCCC)[C@]2(C)[C@H](C)CC[C@]3(CCC(=O)[C@H]32)[C@@H](C)[C@@H]1O [Compound 21, 22-Butylamineyl-22-deoxypleuromutilin]	4 (≈ 9.22 µM)	2 (≈ 4.61 µM)	4 (≈ 9.22 µM)	4 (≈ 9.22 µM)	8 (≈ 18.4 µM)	4 (≈ 9.22 µM)	8 (≈ 18.4 µM)	8 (≈ 18.4 µM)	4.24	0.0231	5440	74 to 75
C=C[C@]1(C)C[C@@H](OC(=O)CNCc2ccc(F)cc2)[C@]2(C)[C@H](C)CC[C@]3(CCC(=O)[C@H]32)[C@@H](C)[C@@H]1O [Compound 16, 22-(4-Fluorobenzylamineyl)-22-deoxypleuromutilin]	8 (≈ 16.5 µM)	4 (≈ 8.24 µM)	32 (≈ 65.9 µM)	16 (≈ 32.9 µM)	16 (≈ 32.9 µM)	8 (≈ 16.5 µM)	32 (≈ 65.9 µM)	16 (≈ 32.9 µM)	2.04	0.00929	4560	76 to 77
C=C[C@]1(C)C[C@@H](OC(=O)CNc2cccc(Cl)c2)[C@]2(C)[C@H](C)CC[C@]3(CCC(=O)[C@H]32)[C@@H](C)[C@@H]1O [Compound 10, 22-(3-Chloroanilineyl)-22-deoxypleuromutilin]	0.12 (≈ 0.246 µM)	0.12 (≈ 0.246 µM)	0.25 (≈ 0.512 µM)	0.12 (≈ 0.246 µM)	0.5 (≈ 1.02 µM)	0.125 (≈ 0.256 µM)	0.5 (≈ 1.02 µM)	0.25 (≈ 0.512 µM)	–	0.00224	26	158 to 160
C=C[C@]1(C)C[C@@H](OC(=O)CNc2ccc(Cl)cc2)[C@]2(C)[C@H](C)CC[C@]3(CCC(=O)[C@H]32)[C@@H](C)[C@@H]1O [Compound 11, 22-(4-Chloroanilineyl)-22-deoxypleuromutilin]	0.25 (≈ 0.512 µM)	0.12 (≈ 0.246 µM)	1 (≈ 2.05 µM)	0.5 (≈ 1.02 µM)	1 (≈ 2.05 µM)	0.25 (≈ 0.512 µM)	2 (≈ 4.1 µM)	1 (≈ 2.05 µM)	–	0.0019	51.8	94 to 95
C=C[C@]1(C)C[C@@H](OC(=O)CNCc2cccc(F)c2)[C@]2(C)[C@H](C)CC[C@]3(CCC(=O)[C@H]32)[C@@H](C)[C@@H]1O [Compound 15, 22-(3-Fluorobenzylamineyl)-22-deoxypleuromutilin]	2 (≈ 4.12 µM)	1 (≈ 2.06 µM)	8 (≈ 16.5 µM)	4 (≈ 8.24 µM)	8 (≈ 16.5 µM)	2 (≈ 4.12 µM)	16 (≈ 32.9 µM)	8 (≈ 16.5 µM)	1960	0.00432	2.21	143 to 144
C=C[C@]1(C)C[C@@H](OC(=O)CN2CCSCC2)[C@]2(C)[C@H](C)CC[C@]3(CCC(=O)[C@H]32)[C@@H](C)[C@@H]1O [Compound 30, 22-Thiomorpholine-22-deoxypleuromutilin]	2 (≈ 4.31 µM)	1 (≈ 2.16 µM)	2 (≈ 4.31 µM)	1 (≈ 2.16 µM)	4 (≈ 8.63 µM)	1 (≈ 2.16 µM)	4 (≈ 8.63 µM)	2 (≈ 4.31 µM)	–	0.00021	7.77	82 to 83
